The values that follow come from ChEMBL document CHEMBL5338795, “Novel Triazoles with Potent and Broad-Spectrum Antifungal Activity In Vitro and In Vivo” (J Med Chem, 2023).

Converted amounts (≈) assume the structure as drawn. A value given as a limit tells only on which side of the number the result lay.

Assay type in all cases: functional
Experiment [1] relates to Candida albicans. Put plainly: Antifungal activity against Candida albicans SC5314 assessed as reduction in fungal growth incubated for 24 hrs by CLSI based microdilution analysis.
Experiment [2] deals with Candida albicans. Briefly: Antifungal activity against fluconazole-resistant Candida albicans 24D assessed as inhibition of fungal growth measured for 24 hrs by CLSI based microdilution analysis. A general note: Broth dilution looks for growth in wells or tubes with falling amounts of substance.
Experiment [3] deals with Candida albicans. Put plainly: Antifungal activity against fluconazole-resistant Candida albicans 15 assessed as inhibition of fungal growth measured for 24 hrs by CLSI based microdilution analysis.
The subject of experiment [4] is Candida albicans. Briefly: Antifungal activity against fluconazole-resistant Candida albicans 102 assessed as inhibition of fungal growth measured for 24 hrs by CLSI based microdilution analysis.
The test system of the next experiment is Nakaseomyces glabratus. Briefly: Antifungal activity against Candida glabrata ATCC 15126 assessed as reduction in fungal growth incubated for 24 hrs by CLSI based microdilution analysis.
The next experiment concerns Candida tropicalis. Put plainly: Antifungal activity against Candida tropicalis ATCC 750 assessed as reduction in fungal growth incubated for 24 hrs by CLSI based microdilution analysis.
The test system of experiment [5] is Meyerozyma guilliermondii. Briefly: Antifungal activity against Meyerozyma guilliermondii ATCC 6260 assessed as reduction in fungal growth incubated for 24 hrs by CLSI based microdilution analysis.
Experiment [6] deals with Candida albicans. Put plainly: Antifungal activity against fluconazole-resistant Candida albicans 901 assessed as inhibition of fungal growth measured for 24 hrs by CLSI based microdilution analysis.
The test system of experiment [7] is Candida albicans. Briefly: Antifungal activity against fluconazole-resistant Candida albicans 13 assessed as inhibition of fungal growth measured for 24 hrs by CLSI based microdilution analysis.
A further experiment relates to Candida parapsilosis. Briefly: Antifungal activity against Candida parapsilosis ATCC 22019 assessed as reduction in fungal growth incubated for 24 hrs by CLSI based microdilution analysis. To be noted: Lodderomyces parapsilosis.
Another experiment concerns Aspergillus fumigatus. Briefly: Antifungal activity against Aspergillus fumigatus CGMCC3 7795 assessed as reduction in fungal growth incubated for 48 hrs by CLSI based microdilution analysis.
A further experiment deals with Cryptococcus neoformans. Briefly: Antifungal activity against Cryptococcus neoformans CGMCC3 1563 assessed as reduction in fungal growth incubated for 72 hrs by CLSI based microdilution analysis.
For experiment [8], the system named is Candida albicans. Briefly: Antifungal activity against fluconazole-resistant Candida albicans 112869 assessed as inhibition of fungal growth measured for 24 hrs by CLSI based microdilution analysis.

With `OC(CN1CCN(CCn2c3ccccc3c3cc(Cl)ccc32)CC1)(Cn1cncn1)c1ccc(F)cc1F` (stereo unspecified), the MIC80 – broadly, the lowest concentration that inhibits either 80% of growth or 80% of the strains tested, depending on the study – in the experiment on Candida albicans [1] is 0.25 µg/mL (≈ 0.454 µM).

Take `O=C(c1ccc2c(c1)OCCO2)N1CCN(CC(O)(Cn2cncn2)c2ccc(F)cc2F)CC1` (stereo unspecified): in the experiment with Candida albicans [1], the MIC80 came out at 0.25 µg/mL (≈ 0.515 µM).

In the case of `O[C@@](CN1CCN(CCn2ncc3ccccc32)CC1)(Cn1cncn1)c1ccc(F)cc1F`, the MIC80 with Candida albicans [1] was found to be 0.031 µg/mL (≈ 0.0663 µM).

As for `O=c1ccc2ccc(OCCN3CCN(CC(O)(Cn4cncn4)c4ccc(F)cc4F)CC3)cc2o1` (stereo unspecified), the MIC80 in the experiment on Candida albicans [1] came out at 0.25 µg/mL (≈ 0.489 µM).

In the case of `OC(CN1CCN(CCCCCn2ccc3ccc(F)cc32)CC1)(Cn1cncn1)c1ccc(F)cc1F` (stereo unspecified), in the experiment on Candida albicans [1], the MIC80 worked out at 0.125 µg/mL (≈ 0.237 µM).

For the compound `Cc1ccc2c(ccn2CCCN2CCN(CC(O)(Cn3cncn3)c3ccc(F)cc3F)CC2)c1` (stereo unspecified), the MIC80 with Candida albicans [2] turned out to be 0.125 µg/mL (≈ 0.253 µM); with Candida albicans [3] it was 2.5 µg/mL (≈ 5.05 µM); in the experiment on Candida albicans [4], 0.062 µg/mL (≈ 0.125 µM); with Nakaseomyces glabratus it was 0.625 µg/mL (≈ 1.26 µM); in the experiment on Candida tropicalis, 0.625 µg/mL (≈ 1.26 µM); with Candida albicans [1] it was 0.062 µg/mL (≈ 0.125 µM). In addition, the MIC80 came out at 0.125 µg/mL (≈ 0.253 µM) in [5]; 5 µg/mL (≈ 10.1 µM) in the experiment with Candida albicans [6]; 0.062 µg/mL (≈ 0.125 µM) with Candida albicans [7]; 0.125 µg/mL (≈ 0.253 µM) in the experiment on Candida parapsilosis; 5 µg/mL (≈ 10.1 µM) in the experiment on Aspergillus fumigatus; 0.062 µg/mL (≈ 0.125 µM) in the experiment on Cryptococcus neoformans. For the same compound, in the experiment on Candida albicans [8], the MIC80 amounted to 0.25 µg/mL (≈ 0.505 µM).

Turning to `O=C(c1ccc2c(c1)OCO2)N1CCN(CC(O)(Cn2cncn2)c2ccc(F)cc2F)CC1` (stereo unspecified), in the experiment on Candida albicans [1], the MIC80 turned out to be 0.25 µg/mL (≈ 0.53 µM).

As for `OC(CN1CCN(CCn2c3ccccc3c3ccccc32)CC1)(Cn1cncn1)c1ccc(F)cc1F` (stereo unspecified), the MIC80 in the experiment with Candida albicans [1] was determined as 0.125 µg/mL (≈ 0.242 µM).

Turning to `OC(CN1CCN(CCCCn2ccc3cc(Br)ccc32)CC1)(Cn1cncn1)c1ccc(F)cc1F` (stereo unspecified), the MIC80 amounted to 0.125 µg/mL (≈ 0.218 µM) with Candida albicans [2]; 1.25 µg/mL (≈ 2.18 µM) in the experiment on Candida albicans [3]; 0.062 µg/mL (≈ 0.108 µM) with Candida albicans [4]; 0.312 µg/mL (≈ 0.544 µM) in the experiment with Nakaseomyces glabratus; 0.312 µg/mL (≈ 0.544 µM) with Candida tropicalis; 0.062 µg/mL (≈ 0.108 µM) in the experiment on Candida albicans [1]. The MIC80 in experiment [5] is 0.125 µg/mL (≈ 0.218 µM); with Candida albicans [6] it was 2.5 µg/mL (≈ 4.36 µM); in the experiment on Candida albicans [7] it was 0.062 µg/mL (≈ 0.108 µM); with Candida parapsilosis, 0.062 µg/mL (≈ 0.108 µM); with Aspergillus fumigatus, 1.25 µg/mL (≈ 2.18 µM); in the experiment on Cryptococcus neoformans it was 0.031 µg/mL (≈ 0.0541 µM). Further, the MIC80 in the experiment with Candida albicans [8] was found to be 0.25 µg/mL (≈ 0.436 µM).

`COc1ccc2c(ccn2CCCCCCCCCN2CCN(CC(O)(Cn3cncn3)c3ccc(F)cc3F)CC2)c1` (stereo unspecified): the MIC80 in the experiment with Candida albicans [1] worked out at 0.5 µg/mL (≈ 0.841 µM).

In the case of `O=[N+]([O-])c1ccc2c(ccn2CCN2CCN(CC(O)(Cn3cncn3)c3ccc(F)cc3F)CC2)c1` (stereo unspecified), the MIC80 was determined as 0.031 µg/mL (≈ 0.0606 µM) in the experiment with Candida albicans [2]; 1.25 µg/mL (≈ 2.44 µM) with Candida albicans [3]; 0.031 µg/mL (≈ 0.0606 µM) in the experiment on Candida albicans [4]; 0.312 µg/mL (≈ 0.61 µM) in the experiment on Nakaseomyces glabratus; 0.312 µg/mL (≈ 0.61 µM) in the experiment on Candida tropicalis; 0.031 µg/mL (≈ 0.0606 µM) with Candida albicans [1]. Moreover, the MIC80 in experiment [5] is 0.062 µg/mL (≈ 0.121 µM); in the experiment with Candida albicans [6], 1.25 µg/mL (≈ 2.44 µM); with Candida albicans [7], 0.062 µg/mL (≈ 0.121 µM); in the experiment with Candida parapsilosis, 0.062 µg/mL (≈ 0.121 µM); in the experiment with Aspergillus fumigatus it was 1.25 µg/mL (≈ 2.44 µM); in the experiment with Cryptococcus neoformans it was 0.031 µg/mL (≈ 0.0606 µM). The MIC80 with Candida albicans [8] was 0.062 µg/mL (≈ 0.121 µM).

In the case of `OC(CN1CCN(CCn2ccc3cccnc32)CC1)(Cn1cncn1)c1ccc(F)cc1F` (stereo unspecified), in the experiment with Candida albicans [1], the MIC80 turned out to be 0.062 µg/mL (≈ 0.133 µM).

Regarding `CCC(C)n1ncn(-c2ccc(N3CCN(c4ccc(OCC5COC(Cn6cncn6)(c6ccc(Cl)cc6Cl)O5)cc4)CC3)cc2)c1=O` (stereo unspecified) [ITRACONAZOLE], the MIC80 is above 100 µg/mL with Candida albicans [2]; above 100 µg/mL with Candida albicans [3]; above 100 µg/mL in the experiment with Candida albicans [4]; 0.625 µg/mL (≈ 0.886 µM) with Nakaseomyces glabratus; 0.625 µg/mL (≈ 0.886 µM) in the experiment with Candida tropicalis; 0.062 µg/mL (≈ 0.0879 µM) in the experiment with Candida albicans [1]. The MIC80 in [5] was 0.25 µg/mL (≈ 0.354 µM); in the experiment on Candida albicans [6], above 100 µg/mL; in the experiment with Candida albicans [7] it was above 100 µg/mL; in the experiment with Candida parapsilosis it was 0.25 µg/mL (≈ 0.354 µM); in the experiment on Aspergillus fumigatus, 0.312 µg/mL (≈ 0.442 µM); with Cryptococcus neoformans it was 0.062 µg/mL (≈ 0.0879 µM). The MIC80 in the experiment on Candida albicans [8] was above 100 µg/mL.

As for `OC(CN1CCN(CCCCCCCCCCn2ccc3cc(Br)ccc32)CC1)(Cn1cncn1)c1ccc(F)cc1F` (stereo unspecified), in the experiment with Candida albicans [1], the MIC80 was found to be 0.25 µg/mL (≈ 0.38 µM).

As for `OC(CN1CCN(CCCCCCn2ccc3cc(Br)ccc32)CC1)(Cn1cncn1)c1ccc(F)cc1F` (stereo unspecified), in the experiment on Candida albicans [1], the MIC80 was 0.125 µg/mL (≈ 0.208 µM).

For the compound `O[C@](CN1CCN(CCn2ncc3ccccc32)CC1)(Cn1cncn1)c1ccc(F)cc1F`, the MIC80 with Candida albicans [1] turned out to be 50 µg/mL (≈ 107 µM).

On to `OC(CN1CCN(CCCCCCCCCn2ccc3cc(Cl)ccc32)CC1)(Cn1cncn1)c1ccc(F)cc1F` (stereo unspecified), for which the MIC80 in the experiment with Candida albicans [1] was found to be 0.25 µg/mL (≈ 0.417 µM).

Turning to `CN1CCN(CC(O)(Cn2cncn2)c2ccc(F)cc2F)CC1` (stereo unspecified), the MIC80 in the experiment with Candida albicans [1] came out at 25 µg/mL (≈ 74.1 µM).

As for `OC(CN1CCN(CCCn2ccc3ccc(Cl)cc32)CC1)(Cn1cncn1)c1ccc(F)cc1F` (stereo unspecified), the MIC80 with Candida albicans [2] is 0.062 µg/mL (≈ 0.12 µM); with Candida albicans [3], 2.5 µg/mL (≈ 4.85 µM); in the experiment on Candida albicans [4] it was 0.062 µg/mL (≈ 0.12 µM); in the experiment on Nakaseomyces glabratus, 0.312 µg/mL (≈ 0.606 µM); in the experiment with Candida tropicalis, 0.625 µg/mL (≈ 1.21 µM); in the experiment on Candida albicans [1] it was 0.062 µg/mL (≈ 0.12 µM). Further, the MIC80 in experiment [5] came out at 0.125 µg/mL (≈ 0.243 µM); in the experiment on Candida albicans [6], 5 µg/mL (≈ 9.71 µM); in the experiment with Candida albicans [7] it was 0.062 µg/mL (≈ 0.12 µM); in the experiment on Candida parapsilosis, 0.125 µg/mL (≈ 0.243 µM); in the experiment on Aspergillus fumigatus it was 5 µg/mL (≈ 9.71 µM); in the experiment with Cryptococcus neoformans, 0.031 µg/mL (≈ 0.0602 µM). Moreover, in the experiment on Candida albicans [8], the MIC80 was 0.25 µg/mL (≈ 0.485 µM).

In the case of `Cc1ccc2c(c1)C(=O)C(=O)N2CCN1CCN(CC(O)(Cn2cncn2)c2ccc(F)cc2F)CC1` (stereo unspecified), in the experiment with Candida albicans [1], the MIC80 was 0.125 µg/mL (≈ 0.245 µM).

Turning to `OC(CN1CCN(CCCCCCCCCCn2ccc3cc(Cl)ccc32)CC1)(Cn1cncn1)c1ccc(F)cc1F` (stereo unspecified), the MIC80 with Candida albicans [1] is 0.5 µg/mL (≈ 0.815 µM).

Take `OC(CN1CCN(CCn2c3ccccc3c3cc(Br)ccc32)CC1)(Cn1cncn1)c1ccc(F)cc1F` (stereo unspecified): the MIC80 with Candida albicans [1] stood at 0.25 µg/mL (≈ 0.42 µM).

As to `COc1ccc(S(=O)(=O)N2CCN(CC(O)(Cn3cncn3)c3ccc(F)cc3F)CC2)cc1` (stereo unspecified), the MIC80 in the experiment on Candida albicans [1] stood at 0.25 µg/mL (≈ 0.507 µM).

`OC(CN1CCN(CCn2ccc3cc(Br)cnc32)CC1)(Cn1cncn1)c1ccc(F)cc1F` (stereo unspecified): the MIC80 in the experiment with Candida albicans [1] came out at 0.062 µg/mL (≈ 0.113 µM).

For `OC(CN1CCN(CCn2ncc3ccccc32)CC1)(Cn1cncn1)c1ccc(F)cc1F` (stereo unspecified), the MIC80 in the experiment on Candida albicans [1] is 0.062 µg/mL (≈ 0.133 µM).

For the compound `Cc1ccc2oc(=O)c(C(=O)N3CCN(CC(O)(Cn4cncn4)c4ccc(F)cc4F)CC3)cc2c1` (stereo unspecified), the MIC80 in the experiment with Candida albicans [1] is 0.125 µg/mL (≈ 0.245 µM).
